From patent publication US20210070748A1, “INHIBITORS OF BRUTONS TYROSINE KINASE” (Pharmacyclics LLC, priority 2015, published 2021)
pIC50: −log10 of the molar value.

Legend:
Type in all cases: biochemical
JAK3 = biological target: T1, JAK3 (Homo sapiens, UniProt P52333); experiment: Inhibition of a panel of kinases, in vitro HotSpot kinase assay: JAK3; details: E compounds, Table 17; read-out: IC50 JAK3
T1 sequence (P52333 1-1124): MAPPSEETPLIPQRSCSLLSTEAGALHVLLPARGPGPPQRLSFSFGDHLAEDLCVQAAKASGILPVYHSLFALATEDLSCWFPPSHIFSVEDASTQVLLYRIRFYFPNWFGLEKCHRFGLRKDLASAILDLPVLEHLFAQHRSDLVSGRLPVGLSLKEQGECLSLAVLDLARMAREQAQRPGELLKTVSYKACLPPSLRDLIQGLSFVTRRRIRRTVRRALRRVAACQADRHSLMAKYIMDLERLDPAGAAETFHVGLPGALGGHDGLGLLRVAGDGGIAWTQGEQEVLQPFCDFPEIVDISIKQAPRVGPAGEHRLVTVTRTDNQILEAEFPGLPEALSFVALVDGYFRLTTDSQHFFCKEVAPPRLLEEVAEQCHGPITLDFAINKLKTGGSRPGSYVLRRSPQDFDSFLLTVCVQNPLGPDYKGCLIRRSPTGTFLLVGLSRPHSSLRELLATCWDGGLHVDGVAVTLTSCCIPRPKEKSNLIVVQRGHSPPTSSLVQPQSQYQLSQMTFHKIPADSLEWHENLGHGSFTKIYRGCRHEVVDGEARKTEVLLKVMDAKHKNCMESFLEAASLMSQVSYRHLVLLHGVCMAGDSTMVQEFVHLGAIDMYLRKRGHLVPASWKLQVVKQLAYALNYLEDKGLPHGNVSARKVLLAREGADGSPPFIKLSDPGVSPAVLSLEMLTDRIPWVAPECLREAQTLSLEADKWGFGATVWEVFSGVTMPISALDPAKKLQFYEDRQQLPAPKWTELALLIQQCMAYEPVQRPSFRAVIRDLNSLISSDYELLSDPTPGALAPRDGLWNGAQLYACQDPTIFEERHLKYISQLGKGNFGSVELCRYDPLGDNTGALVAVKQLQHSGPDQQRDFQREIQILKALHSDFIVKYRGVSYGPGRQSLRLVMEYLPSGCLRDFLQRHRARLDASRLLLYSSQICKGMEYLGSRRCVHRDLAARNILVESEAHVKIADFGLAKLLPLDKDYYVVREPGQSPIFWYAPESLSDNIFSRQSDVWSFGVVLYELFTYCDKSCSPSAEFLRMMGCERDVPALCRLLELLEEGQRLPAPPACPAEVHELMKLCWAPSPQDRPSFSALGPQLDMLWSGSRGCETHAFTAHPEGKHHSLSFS

LCK = LCK (Homo sapiens, UniProt P06239); experiment: Inhibition of a panel of kinases, in vitro HotSpot kinase assay: LCK; details: E compounds, Table 17; read-out: IC50 LCK
BTK-WT = biological target: T2, BTK-WT (Homo sapiens, UniProt Q06187); experiment: Btk in vitro inhibitory activity (one of Method A TR-FRET, Method B electrophoretic mobility shift, Method C radiometric filter binding); details: E compounds, Table 17; read-out: IC50 BTK-WT
T2 construct: purified from insect cells as a full-length construct containing an N-terminal 6X-His tag; His6 (N); made in house; host or cells: insect cells (baculovirus Sf21 in Method B)
T2 sequence (Q06187 whole entry): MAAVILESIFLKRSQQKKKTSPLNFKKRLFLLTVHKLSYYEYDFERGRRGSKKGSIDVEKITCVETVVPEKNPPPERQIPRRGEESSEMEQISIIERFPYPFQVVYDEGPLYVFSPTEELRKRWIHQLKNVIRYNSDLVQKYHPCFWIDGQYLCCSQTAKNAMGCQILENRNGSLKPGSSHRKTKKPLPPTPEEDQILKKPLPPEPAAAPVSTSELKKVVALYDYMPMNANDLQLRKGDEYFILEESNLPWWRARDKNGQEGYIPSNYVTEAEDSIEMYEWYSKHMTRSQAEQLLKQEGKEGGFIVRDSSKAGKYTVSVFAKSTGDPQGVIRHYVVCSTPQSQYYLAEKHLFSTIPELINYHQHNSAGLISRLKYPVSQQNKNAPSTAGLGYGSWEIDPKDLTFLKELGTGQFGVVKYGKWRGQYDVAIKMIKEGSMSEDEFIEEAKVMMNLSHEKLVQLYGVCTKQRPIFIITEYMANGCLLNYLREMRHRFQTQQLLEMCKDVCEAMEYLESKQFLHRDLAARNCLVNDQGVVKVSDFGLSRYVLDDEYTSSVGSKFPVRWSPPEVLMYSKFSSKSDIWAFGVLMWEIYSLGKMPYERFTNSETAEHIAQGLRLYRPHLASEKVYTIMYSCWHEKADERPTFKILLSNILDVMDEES

Sequence of LCK (P06239 whole entry): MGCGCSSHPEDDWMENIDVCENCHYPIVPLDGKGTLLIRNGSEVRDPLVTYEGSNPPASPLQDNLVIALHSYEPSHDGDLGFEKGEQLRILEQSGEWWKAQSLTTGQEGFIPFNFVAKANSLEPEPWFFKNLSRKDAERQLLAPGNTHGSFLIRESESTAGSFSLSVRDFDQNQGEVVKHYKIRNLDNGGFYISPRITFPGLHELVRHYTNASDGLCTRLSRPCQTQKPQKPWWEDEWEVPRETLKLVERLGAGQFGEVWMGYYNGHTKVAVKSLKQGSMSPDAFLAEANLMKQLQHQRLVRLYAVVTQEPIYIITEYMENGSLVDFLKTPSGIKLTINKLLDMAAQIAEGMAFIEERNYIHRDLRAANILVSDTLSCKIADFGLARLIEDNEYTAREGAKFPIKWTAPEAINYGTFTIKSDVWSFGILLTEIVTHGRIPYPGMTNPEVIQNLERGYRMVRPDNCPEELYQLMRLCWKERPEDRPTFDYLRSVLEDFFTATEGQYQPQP

Row | pIC50 (JAK3) | pIC50 (LCK) | pIC50 (BTK-WT) | Compound
1 | 6.00 to 7.00 | 7.00 to 8.00 | ≥ 8.00 | Cc1cc(C(=O)N[C@@H]2CCCN(c3cnc(C(N)=O)c(Nc4cnn(C)c4)n3)[C@@H]2C)ccc1C(C)(C)O [Example E-152, 5-((2R,3R)-3-(4-(2-hydroxypropan-2-yl)-3-methylbenzamido)-2-methylpiperidin-1-yl)-3-((1-methyl-1H-pyrazol-4-yl)amino)pyrazine-2-carboxamide]
2 | 5.00 to 6.00 | 7.00 to 8.00 | ≥ 8.00 | C[C@@H]1[C@H](NC(=O)c2ccc3c(c2)C(C)(C)OC3)CCCN1c1cnc(C(N)=O)c(Nc2cnn(C)c2)n1 [Example E-153, 5-((2R,3R)-3-(3,3-dimethyl-1,3-dihydroisobenzofuran-5-carboxamido)-2-methylpiperidin-1-yl)-3-((1-methyl-1H-pyrazol-4-yl)amino)pyrazine-2-carboxamide]
3 | 6.00 to 7.00 | 7.00 to 8.00 | ≥ 8.00 | C[C@@H]1[C@H](NC(=O)c2ccc(-c3ncco3)cc2)CCCN1c1cnc(C(N)=O)c(Nc2cnn(C)c2)n1 [Example E-154, 3-((1-methyl-1H-pyrazol-4-yl)amino)-5-((2R,3R)-2-methyl-3-(4-(oxazol-2-yl)benzamido)piperidin-1-yl)pyrazine-2-carboxamide]
4 | 6.00 to 7.00 | 7.00 to 8.00 | ≥ 8.00 | Cc1nc(-c2ccc(C(=O)N[C@@H]3CCCN(c4cnc(C(N)=O)c(Nc5cnn(C)c5)n4)[C@@H]3C)cc2)cs1 [Example E-155, 3-((1-methyl-1H-pyrazol-4-yl)amino)-5-((2R,3R)-2-methyl-3-(4-(2-methylthiazol-4-yl)benzamido)piperidin-1-yl)pyrazine-2-carboxamide]
